# Test results: ChEMBL document CHEMBL5608259 (J Med Chem, 2024)
# Active and inactive are the calls of the source. No cut-off for these calls is given here.
# Legend:
# [1] = biological target: Protein arginine N-methyltransferase 8 (Homo sapiens, UniProt Q9NR22); test: Inhibition of human PRMT8 using Histone H4 as substrate and SAM as cofactor at 10 uM by radiometric HotSpot assay relative to control
# [2] = biological target: Protein arginine N-methyltransferase 3 (Homo sapiens, UniProt O60678); test: Inhibition of human PRMT3 using H4-21peptide as substrate at 10 uM incubated for 10 mins by fluorescence based analysis relative to control
# Chain of Protein arginine N-methyltransferase 3 (O60678 2-531 limits assumed): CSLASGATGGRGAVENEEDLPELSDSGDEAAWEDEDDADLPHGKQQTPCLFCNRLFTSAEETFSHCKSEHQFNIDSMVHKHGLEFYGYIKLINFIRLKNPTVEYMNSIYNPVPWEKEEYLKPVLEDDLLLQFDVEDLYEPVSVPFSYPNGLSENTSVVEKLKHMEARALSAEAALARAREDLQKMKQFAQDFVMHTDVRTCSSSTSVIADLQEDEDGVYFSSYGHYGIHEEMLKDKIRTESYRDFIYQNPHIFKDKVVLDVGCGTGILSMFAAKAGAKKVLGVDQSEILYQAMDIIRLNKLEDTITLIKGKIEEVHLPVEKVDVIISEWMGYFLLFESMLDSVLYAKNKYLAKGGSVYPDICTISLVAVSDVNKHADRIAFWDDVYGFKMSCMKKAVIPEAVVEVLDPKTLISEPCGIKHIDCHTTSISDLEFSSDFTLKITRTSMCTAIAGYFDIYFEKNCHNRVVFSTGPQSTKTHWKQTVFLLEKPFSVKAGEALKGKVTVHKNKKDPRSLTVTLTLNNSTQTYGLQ
# [3] = biological target: Protein arginine N-methyltransferase 6 (Homo sapiens, UniProt Q96LA8); test: Inhibition of human PRMT6 using GST-GAR as substrate and SAM as cofactor at 10 uM by radiometric HotSpot assay relative to control
# Chain of Protein arginine N-methyltransferase 6 (Q96LA8 whole entry, looked up): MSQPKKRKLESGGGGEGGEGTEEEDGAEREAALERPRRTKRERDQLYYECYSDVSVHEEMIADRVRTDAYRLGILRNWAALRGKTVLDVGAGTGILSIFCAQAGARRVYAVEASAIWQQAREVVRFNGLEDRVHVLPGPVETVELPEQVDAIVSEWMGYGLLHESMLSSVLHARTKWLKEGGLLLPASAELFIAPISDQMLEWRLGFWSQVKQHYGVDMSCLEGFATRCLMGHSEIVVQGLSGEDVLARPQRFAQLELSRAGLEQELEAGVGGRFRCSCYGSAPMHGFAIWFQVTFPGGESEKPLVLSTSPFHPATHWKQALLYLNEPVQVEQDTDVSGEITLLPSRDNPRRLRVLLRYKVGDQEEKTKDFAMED
# [4] = biological target: Protein arginine N-methyltransferase 1 (Homo sapiens, UniProt Q99873); test: Inhibition of human PRMT1 using H4-21peptide as substrate at 10 uM incubated for 10 mins by fluorescence based analysis relative to control
# Chain of Protein arginine N-methyltransferase 1 (Q99873 whole entry, looked up): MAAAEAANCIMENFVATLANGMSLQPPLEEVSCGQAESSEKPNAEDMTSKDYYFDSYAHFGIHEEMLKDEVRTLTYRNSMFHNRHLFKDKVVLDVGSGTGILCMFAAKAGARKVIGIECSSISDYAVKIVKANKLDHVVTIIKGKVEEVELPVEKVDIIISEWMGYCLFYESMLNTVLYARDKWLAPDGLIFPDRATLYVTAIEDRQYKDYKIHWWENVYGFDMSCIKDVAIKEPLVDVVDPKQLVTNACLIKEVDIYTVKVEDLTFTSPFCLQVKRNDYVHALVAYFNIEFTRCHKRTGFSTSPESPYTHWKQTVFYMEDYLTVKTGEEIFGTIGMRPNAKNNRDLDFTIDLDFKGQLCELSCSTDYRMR
# [5] = biological target: T1, Histone-arginine methyltransferase CARM1 (Homo sapiens) (UniProt Q86X55); test: Inhibition of human PRMT4 using histone H3 as substrate and SAM as cofactor at 10 uM by radiometric HotSpot assay relative to control
# T1 sequence (whole entry): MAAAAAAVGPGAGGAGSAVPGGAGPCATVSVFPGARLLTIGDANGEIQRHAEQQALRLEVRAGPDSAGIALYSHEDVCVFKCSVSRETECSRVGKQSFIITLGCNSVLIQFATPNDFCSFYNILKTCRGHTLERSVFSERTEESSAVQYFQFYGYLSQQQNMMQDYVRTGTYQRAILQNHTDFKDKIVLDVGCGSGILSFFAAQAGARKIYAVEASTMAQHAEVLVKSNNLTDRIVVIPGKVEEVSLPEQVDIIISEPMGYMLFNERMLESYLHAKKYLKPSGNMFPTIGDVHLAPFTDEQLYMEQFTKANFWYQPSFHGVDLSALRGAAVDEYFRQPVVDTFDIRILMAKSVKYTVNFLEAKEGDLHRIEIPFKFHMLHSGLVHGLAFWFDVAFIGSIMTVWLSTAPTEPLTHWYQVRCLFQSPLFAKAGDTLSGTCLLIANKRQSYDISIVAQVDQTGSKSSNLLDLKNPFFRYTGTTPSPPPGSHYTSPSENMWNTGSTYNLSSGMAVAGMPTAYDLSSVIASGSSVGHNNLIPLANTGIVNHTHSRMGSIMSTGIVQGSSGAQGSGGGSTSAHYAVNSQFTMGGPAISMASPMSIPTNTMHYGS
# Chain of Protein arginine N-methyltransferase 8 (Q9NR22 2-394 limits assumed): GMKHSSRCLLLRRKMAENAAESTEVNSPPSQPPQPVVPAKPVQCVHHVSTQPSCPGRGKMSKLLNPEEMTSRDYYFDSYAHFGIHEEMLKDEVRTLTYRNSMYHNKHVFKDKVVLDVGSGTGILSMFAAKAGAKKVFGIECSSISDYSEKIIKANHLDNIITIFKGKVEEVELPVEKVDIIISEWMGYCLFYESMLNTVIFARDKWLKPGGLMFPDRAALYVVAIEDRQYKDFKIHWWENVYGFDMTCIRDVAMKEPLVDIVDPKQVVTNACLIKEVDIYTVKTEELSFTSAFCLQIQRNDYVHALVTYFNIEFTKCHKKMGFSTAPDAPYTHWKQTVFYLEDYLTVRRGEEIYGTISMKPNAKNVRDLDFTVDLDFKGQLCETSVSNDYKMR
SMILES,inhibition [1],inhibition [2],inhibition [3],inhibition [4],inhibition [5]
Nc1ncnc2c1ncn2[C@@H]1O[C@H](CSCCOc2ccc(-c3ccc(F)c(O)c3)cc2)[C@@H](O)[C@H]1O,< 50%,< 30%,< 50%,inactive,
Nc1ncnc2c1ncn2[C@@H]1O[C@H](CSCCNCc2cccc(-c3ccc(Cl)cc3)c2)[C@@H](O)[C@H]1O,> 50%,< 30%,50%,,> 90%
Nc1ncnc2c1ncn2[C@@H]1O[C@H](CSCCNCc2cccc(-c3ccccc3O)c2)[C@@H](O)[C@H]1O,> 50%,< 30%,50%,,> 90%
Nc1ncnc2c1ncn2[C@@H]1O[C@H](CSCCNCc2cccc(-c3ccc(O)cc3)c2)[C@@H](O)[C@H]1O,> 50%,< 30%,50%,,> 90%
N=C(NCCSC[C@H]1O[C@@H](n2cnc3c(N)ncnc32)[C@H](O)[C@@H]1O)NCc1ccccc1,> 95%,,> 90%,> 50%,> 90%
Nc1ncnc2c1ncn2[C@@H]1O[C@H](CSCCCNCc2cccc(-c3ccc(C(F)(F)F)cc3)c2)[C@@H](O)[C@H]1O,> 50%,< 30%,50%,,> 90%
Nc1ncnc2c1ncn2[C@@H]1O[C@H](CSCCOc2ccc(-c3ccc(Cl)cc3)cc2)[C@@H](O)[C@H]1O,< 50%,< 30%,< 50%,inactive,
Nc1ncnc2c1ncn2[C@@H]1O[C@H](CSCCNCc2cccc(-c3cccc4cn[nH]c34)c2)[C@@H](O)[C@H]1O,> 50%,< 30%,50%,,> 90%
N=C(NCCCSC[C@H]1O[C@@H](n2cnc3c(N)ncnc32)[C@H](O)[C@@H]1O)Nc1cccc(-c2ccc(F)c(O)c2)c1,> 95%,,> 90%,> 50%,> 90%
N=C(NCCCSC[C@H]1O[C@@H](n2cnc3c(N)ncnc32)[C@H](O)[C@@H]1O)Nc1cccc(-c2ccoc2)c1,> 95%,,> 90%,> 50%,> 90%
Nc1ncnc2c1ncn2[C@@H]1O[C@H](CSCCOc2ccc(-c3ccc(O)cc3)cc2)[C@@H](O)[C@H]1O,< 50%,< 30%,< 50%,inactive,
N=C(NCCCSC[C@H]1O[C@@H](n2cnc3c(N)ncnc32)[C@H](O)[C@@H]1O)Nc1ccccc1,> 95%,,> 90%,> 50%,> 90%
Nc1ncnc2c1ncn2[C@@H]1O[C@H](CSCCNCc2cccc(-c3ccc(F)c(O)c3)c2)[C@@H](O)[C@H]1O,> 50%,< 30%,50%,,> 90%
N=C(NCCSC[C@H]1O[C@@H](n2cnc3c(N)ncnc32)[C@H](O)[C@@H]1O)Nc1cccc(I)c1,> 95%,,> 90%,> 50%,> 90%
Nc1ncnc2c1ncn2[C@@H]1O[C@H](CSCCNCc2cccc(-c3ccncc3)c2)[C@@H](O)[C@H]1O,> 50%,< 30%,50%,,> 90%
Nc1ncnc2c1ncn2[C@@H]1O[C@H](CSCCCNCc2cccc(-c3cccc4cn[nH]c34)c2)[C@@H](O)[C@H]1O,> 50%,< 30%,50%,,> 90%
N=C(NCCCSC[C@H]1O[C@@H](n2cnc3c(N)ncnc32)[C@H](O)[C@@H]1O)Nc1cccc(-c2cccc([N+](=O)[O-])c2)c1,> 95%,,> 90%,> 50%,> 90%
Nc1ncnc2c1ncn2[C@@H]1O[C@H](CSCCCNCc2cccc(-c3ccc(F)c(O)c3)c2)[C@@H](O)[C@H]1O,> 50%,< 30%,50%,,> 90%
Nc1ncnc2c1ncn2[C@@H]1O[C@H](CSCCCNCc2cccc(-c3cccc(F)c3)c2)[C@@H](O)[C@H]1O,> 50%,< 30%,50%,,> 90%

SMILES,inhibition [1],inhibition [2],inhibition [3],inhibition [4],inhibition [5]
COc1cc2nc(-c3ccc(Cl)cc3)nc(NCCSC[C@H]3O[C@@H](n4cnc5c(N)ncnc54)[C@H](O)[C@@H]3O)c2cc1OC,< 50%,< 30%,> 70%,inactive,
Nc1ncnc2c1ncn2[C@@H]1O[C@H](CSCCCNCc2cccc(-c3ccoc3)c2)[C@@H](O)[C@H]1O,> 50%,< 30%,50%,,> 90%
N=C(NCCCSC[C@H]1O[C@@H](n2cnc3c(N)ncnc32)[C@H](O)[C@@H]1O)Nc1cccc(-c2ccc(F)cc2F)c1,> 95%,,> 90%,> 50%,> 90%
Nc1ncnc2c1ncn2[C@@H]1O[C@H](CSCCOc2ccc(-c3ccccc3O)cc2)[C@@H](O)[C@H]1O,< 50%,< 30%,< 50%,inactive,
N=C(NCCSC[C@H]1O[C@@H](n2cnc3c(N)ncnc32)[C@H](O)[C@@H]1O)Nc1cccc(-c2ccoc2)c1,> 95%,,> 90%,> 50%,> 90%
N=C(NCCCSC[C@H]1O[C@@H](n2cnc3c(N)ncnc32)[C@H](O)[C@@H]1O)Nc1cccc(-c2ccc(O)cc2)c1,> 95%,,> 90%,> 50%,> 90%
N=C(NCCSC[C@H]1O[C@@H](n2cnc3c(N)ncnc32)[C@H](O)[C@@H]1O)Nc1cccc(-c2ccc(Cl)cc2)c1,> 95%,,> 90%,> 50%,> 90%
N=C(NCCCSC[C@H]1O[C@@H](n2cnc3c(N)ncnc32)[C@H](O)[C@@H]1O)Nc1cccc(-c2n[nH]cc2C(F)(F)F)c1,> 95%,,> 90%,> 50%,> 90%
N=C(NCCCSC[C@H]1O[C@@H](n2cnc3c(N)ncnc32)[C@H](O)[C@@H]1O)Nc1cccc(-c2cccnc2)c1,> 95%,,> 90%,> 50%,> 90%
COc1cc2nc(-c3ccc(O)cc3)nc(NCCSC[C@H]3O[C@@H](n4cnc5c(N)ncnc54)[C@H](O)[C@@H]3O)c2cc1OC,< 50%,< 30%,> 70%,inactive,
Nc1ncnc2c1ncn2[C@@H]1O[C@H](CSCCNCc2cccc(-c3cccc(O)c3)c2)[C@@H](O)[C@H]1O,> 50%,< 30%,50%,,> 90%
Nc1ncnc2c1ncn2[C@@H]1O[C@H](CSCCNCc2cccc(-c3cccc(F)c3)c2)[C@@H](O)[C@H]1O,> 50%,< 30%,50%,,> 90%
N=C(NCCSC[C@H]1O[C@@H](n2cnc3c(N)ncnc32)[C@H](O)[C@@H]1O)Nc1cccc(-c2cccc(F)c2)c1,> 95%,,> 90%,> 50%,> 90%
Nc1cccc(-c2cccc(CNCCSC[C@H]3O[C@@H](n4cnc5c(N)ncnc54)[C@H](O)[C@@H]3O)c2)c1,> 50%,< 30%,50%,,> 90%
Nc1ncnc2c1ncn2[C@@H]1O[C@H](CSCCCNCc2cccc(-c3ccc(O)cc3)c2)[C@@H](O)[C@H]1O,> 50%,< 30%,50%,,> 90%
N=C(NCCCSC[C@H]1O[C@@H](n2cnc3c(N)ncnc32)[C@H](O)[C@@H]1O)Nc1cccc(-c2ccc(F)nc2)c1,> 95%,,> 90%,> 50%,> 90%
N=C(NCCCSC[C@H]1O[C@@H](n2cnc3c(N)ncnc32)[C@H](O)[C@@H]1O)Nc1cccc(-c2ccc(C(F)(F)F)cc2)c1,> 95%,,> 90%,> 50%,> 90%
Nc1ncnc2c1ncn2[C@@H]1O[C@H](CSCCCNCc2cccc(-c3ccc(Cl)cc3)c2)[C@@H](O)[C@H]1O,> 50%,< 30%,50%,,> 90%
Nc1ncnc2c1ncn2[C@@H]1O[C@H](CSCCNCc2cccc(-c3ccc(C(F)(F)F)cc3)c2)[C@@H](O)[C@H]1O,> 50%,< 30%,50%,,> 90%
